Results from ChEMBL document CHEMBL1149959, “Synthesis of potent -D-glucocerebrosidase inhibitors: N-alkyl--valienamines” (Bioorg Med Chem Lett, 1996).

These molecules were tested against T1, Lysosomal acid glucosylceramidase (Mus musculus, UniProt P17439) (assay: Compound was tested for inhibitory activity against beta-glucocerebrosidase.).
T1 sequence (P17439 whole entry): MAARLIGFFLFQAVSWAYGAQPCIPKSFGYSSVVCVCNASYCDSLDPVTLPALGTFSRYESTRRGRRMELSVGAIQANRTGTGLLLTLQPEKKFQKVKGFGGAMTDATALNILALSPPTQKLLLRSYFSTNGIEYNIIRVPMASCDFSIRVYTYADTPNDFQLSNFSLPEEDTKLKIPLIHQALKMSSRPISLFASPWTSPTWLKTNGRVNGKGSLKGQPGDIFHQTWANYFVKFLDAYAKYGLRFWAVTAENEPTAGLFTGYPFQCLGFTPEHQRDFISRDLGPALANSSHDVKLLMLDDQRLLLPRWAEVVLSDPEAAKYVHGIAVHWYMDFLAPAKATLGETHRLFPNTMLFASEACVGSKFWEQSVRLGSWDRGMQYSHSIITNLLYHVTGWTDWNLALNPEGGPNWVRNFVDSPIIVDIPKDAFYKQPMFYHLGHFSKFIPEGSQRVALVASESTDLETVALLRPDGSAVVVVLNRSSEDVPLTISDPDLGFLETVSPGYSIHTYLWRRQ

Compound	IC50
OC1C2O[C@H]2[C@@H](O)C(O)[C@@H]1O (some centres undefined)	1.1 µM
CCCCCCN[C@@H]1C=C(CO)[C@H](O)C(O)[C@@H]1O (some centres undefined)	0.3 µM
CCCCN[C@@H]1C=C(CO)[C@H](O)C(O)[C@@H]1O (some centres undefined)	11 µM
CCCCCCCCCCCCC/C=C/[C@@H](O)[C@H](CN[C@@H]1C=C(CO)[C@H](O)C(O)[C@@H]1O)NC(=O)CCCCCCCCCCCCCCC (some centres undefined)	0.3 µM
CCCCCCCCCCCCCCCCCCN[C@@H]1C=C(CO)[C@H](O)C(O)[C@@H]1O (some centres undefined)	0.3 µM

Second part, the molecule after the results:

IC50	Compound
0.12 µM	CCCCCCCCCCCCCCN[C@@H]1C=C(CO)[C@H](O)C(O)[C@@H]1O (some centres undefined)
0.07 µM	CCCCCCCCCCN[C@@H]1C=C(CO)[C@H](O)C(O)[C@@H]1O (some centres undefined)
0.03 µM	CCCCCCCCN[C@@H]1C=C(CO)[C@H](O)C(O)[C@@H]1O (some centres undefined)

These molecules were tested against T1, Lysosomal acid glucosylceramidase.

Compound	IC50
N[C@H]1C=C(CO)C(O)[C@H](O)C1O (single isomer, unassigned) [VALIENAMINE]	Not Active
